This note sets out measurements from patent EP0309789A1, “4-Oxo-3-quinolinecarboxylic acids useful as antibacterial agents and preparation thereof” (STERLING WINTHROP INC., priority 1987, dated 1989).

≈ marks a conversion by molar mass, not a printed value. Like-named read-outs stand apart in the source and are kept apart here.

One series has as its system E. coli. In words: In vivo antibacterial activity in infected mice (protective dose). To be noted: Mouse, one-half hour postinfection, deaths recorded for seven days; for E. coli (PD₅₀) sc: subcutaneous. The protocol: (§1) The in vivo antibacterial activity of the compounds of the invention was determined in female mice, 18-20 grams each. Aqueous solutions of the compounds to be tested were prepared by dissolving the free acid form in dilute sodium hydroxide and diluting the solution with distilled water to the desired concentration. Cultures of E. coli were grown in brain heart infusion broth, and the mice were inoculated intraperitoneally with 0.5 ml of the bacterial test inoculum suspended in saline. Cultures of Staph. aureus were thawed from frozen pooled stocks and mixed with 5% mucin. A 0.5 ml preparation was used to infect mice by i.p. inoculation. The mice were medicated subcutaneously (sc) or orally (po) with 0.5 ml of the test compound solution one-half hour postinfection. Deaths were recorded daily for seven days. Fifty percent protective dose values (PD₅₀) were calculated using probit analysis.

In a further series the test system is Staph. aureus. The description is as above. To be noted: for Staph. aureus (PD₅₀) po / Staph. aureus (PD₅₀) sc: Mouse, one-half hour postinfection, deaths recorded for seven days; for Staph. aureus (PD₅₀) sc: subcutaneous; for activity relative to the prior art compounds: Staph. aureus, in vivo mouse, from Table II. The protocol:
as §1

The next series has as its system Bacteroides fragilis. As to the kind of experiment: In vitro antimicrobial activity, microplate dilution procedure (MIC), anaerobic. It counts as cell-based. The procedure:
(§2) The in vitro antimicrobial activity of the compounds of the invention was determined by a microplate dilution procedure. […] Resulting suspensions were diluted 1/10 in the appropriate broth or used undiluted for the inoculum. […] The compounds were then serially diluted two-fold in DMSO to give a working stock concentration range plate. The last row of wells was left compound-free receiving only DMSO to serve as a growth control. Five mcl from each well of the working stock plate was transferred to corresponding wells of a separate plate containing 95 mcl/well of the appropriate broth. All dilutions were made with either an automated dilutor or manually. […] Plates were incubated as described above and read for visible growth. The minimal inhibitory concentration (MIC: expressed in mcg/ml) of each compound tested against each test microorganism was determined as the lowest concentration of compound which prevents visible microbial growth.

The test system of a further series is Streptococcus faecalis. As to the kind of experiment: In vitro antimicrobial activity, microplate dilution procedure (MIC). To be noted: Enterococcus faecalis. It counts as cell-based. The protocol: as §2
In another series the test system is Micrococcus luteus. The description is as above. It counts as cell-based. The procedure:
as §2

A further series relates to Pseudomonas aeruginosa. The description is as above. Format: cell-based. To be noted: read-out: PA MIC. The procedure: as §2
A further series has as its system Staphylococcus aureus. Described as above. It counts as cell-based. To be noted: for activity relative to compound R / activity relative to compounds P and Q: from Table I; for MIC: Staphylococcus aureus. The procedure: as §2
The test system of the next series is Streptococcus pneumoniae. Described as above. It counts as cell-based. The procedure:
as §2

For the next series, the system named is Escherichia coli. The series is described as above. It counts as cell-based. The procedure: as §2
Series [1] can be described thus: Serum levels in monkeys after oral dosing. Format: in vivo. To be noted: 25 mg/kg oral dosing; for half-life: monkey. The procedure: In monkeys, compounds A and C gave high and prolonged serum levels after 25 mg/kg oral dosing.
[2] abbreviates: Streptococcus faecalis, read-out: SF MIC.
Where [3] appears, read: Strep. pneumoniae, read-out: MIC.

As for `Cc1cc(-c2c(F)c(F)c3c(=O)c(C(=O)O)cn(C4CC4)c3c2F)cc(C)n1` [B, 1-Cyclopropyl-7-(2,6-dimethyl-4-pyridinyl)-5,6,8-trifluoro-1,4-dihydro-4-oxo-3-quinolinecarboxylic acid], the “E. coli (PD₅₀) po” value in the series on E. coli amounted to 10.8 mg/kg. In the series with E. coli, the “E. coli (PD₅₀) sc” value is 8.9 mg/kg. In addition, in the series on Staph. aureus, the “Staph. aureus (PD₅₀) po” value was 0.14 mg/kg. Moreover, the “Staph. aureus (PD₅₀) sc” value in the series on Staph. aureus amounted to 0.08 mg/kg. Moreover, the “activity relative to the prior art compounds” value in the series on Staph. aureus is given as 9-30 times. Moreover, the minimal inhibitory concentration (MIC) was 0.5 µg/mL (≈ 1.29 µM) in the series on Bacteroides fragilis (anaerobic, read-out: BF MIC); 0.06 µg/mL (≈ 0.155 µM) with Streptococcus faecalis (setting [2]); 0.5 µg/mL (≈ 1.29 µM) in the series with Micrococcus luteus (read-out: ML MIC); 8 µg/mL (≈ 20.6 µM) with Pseudomonas aeruginosa; 0.008 µg/mL (≈ 0.0206 µM) with Staphylococcus aureus (read-out: SA MIC); 0.03 µg/mL (≈ 0.0773 µM) in the series on Streptococcus pneumoniae (read-out: SP MIC). Also, the MIC in the series on Escherichia coli (read-out: EC MIC) stood at 0.125 µg/mL (≈ 0.322 µM). Also, the “activity relative to compound R” value with Staphylococcus aureus (Staph. aureus) is on record as “four times as active”. In addition, the “activity relative to compounds P and Q” value in the series on Staphylococcus aureus (Staph. aureus) is “thirty times as active”.
For `Cc1cc(-c2c(F)cc3c(=O)c(C(=O)O)cn(C4CC4)c3c2F)cc(C)n1` [C, 1-Cyclopropyl-6,8-difluoro-7-(2,6-dimethyl-4-pyridinyl)-1,4-dihydro-4-oxo-3-quinolinecarboxylic acid], in the series with E. coli, the “E. coli (PD₅₀) po” value turned out to be 5.7 mg/kg. Also, the “E. coli (PD₅₀) sc” value in the series with E. coli was 6.1 mg/kg. In the series with Staph. aureus, the “Staph. aureus (PD₅₀) po” value amounted to 0.09 mg/kg. In addition, the “Staph. aureus (PD₅₀) sc” value with Staph. aureus was 0.06 mg/kg. In addition, the “activity relative to the prior art compounds” value in the series with Staph. aureus is 9-30 times. In addition, the MIC in the series with Bacteroides fragilis (anaerobic, read-out: BF MIC) amounted to 0.125 µg/mL (≈ 0.338 µM); in the series on Streptococcus faecalis (setting [2]), 0.06 µg/mL (≈ 0.162 µM); with Micrococcus luteus (read-out: ML MIC), 0.25 µg/mL (≈ 0.675 µM); in the series on Pseudomonas aeruginosa it was 4 µg/mL (≈ 10.8 µM); in the series with Staphylococcus aureus (read-out: SA MIC), 0.008 µg/mL (≈ 0.0216 µM); in the series with Streptococcus pneumoniae (read-out: SP MIC), 0.016 µg/mL (≈ 0.0432 µM). Also, in the series on Escherichia coli (read-out: EC MIC), the MIC stood at 0.06 µg/mL (≈ 0.162 µM). Moreover, the “activity relative to compound R” value with Staphylococcus aureus (Staph. aureus) is given as “four times as active”. In addition, the “activity relative to compounds P and Q” value with Staphylococcus aureus (Staph. aureus) is on record as “thirty times as active”. Besides, in series [1], the maximum concentration was found to be 34 µg/mL. Also, the “time of maximum concentration” value in series [1] turned out to be 5.5 h. In addition, in series [1], the half-life is 20 h.
Regarding `Cc1cc(-c2cc3c(cc2F)c(=O)c(C(=O)O)cn3C2CC2)cc(C)n1` [Compound A, 1-Cyclopropyl-7-(2,6-dimethyl-4-pyridinyl)-6-fluoro-1,4-dihydro-4-oxo-3-quinolinecarboxylic acid], the “E. coli (PD₅₀) po” value in the series on E. coli was found to be 3.8 mg/kg. In addition, the “E. coli (PD₅₀) sc” value in the series on E. coli is on record as 3.1 mg/kg. For the same molecule, the “Staph. aureus (PD₅₀) po” value in the series on Staph. aureus is listed as 0.20 mg/kg. Besides, the “Staph. aureus (PD₅₀) sc” value in the series with Staph. aureus is listed as 0.08 mg/kg. Moreover, the “activity relative to the prior art compounds” value in the series on Staph. aureus is 9-30 times. Also, the MIC with Bacteroides fragilis (anaerobic, read-out: BF MIC) turned out to be 0.5 µg/mL (≈ 1.42 µM); in the series on Streptococcus faecalis (setting [2]) it was 0.06 µg/mL (≈ 0.17 µM); with Micrococcus luteus (read-out: ML MIC), 0.5 µg/mL (≈ 1.42 µM); in the series on Pseudomonas aeruginosa it was 2 µg/mL (≈ 5.68 µM); with Staphylococcus aureus (read-out: SA MIC), 0.008 µg/mL (≈ 0.0227 µM); with Streptococcus pneumoniae (read-out: SP MIC), 0.03 µg/mL (≈ 0.0851 µM). Also, the MIC in the series on Escherichia coli (read-out: EC MIC) came out at 0.03 µg/mL (≈ 0.0851 µM). Moreover, the “activity relative to compound R” value in the series with Staphylococcus aureus (Staph. aureus) was “four times as active”. In addition, the “activity relative to compounds P and Q” value in the series on Staphylococcus aureus (Staph. aureus) is recorded as “thirty times as active”. The same molecule gave a maximum concentration in series [1] of 13 µg/mL. For the same molecule, the “time of maximum concentration” value in series [1] came out at 7 h. Also, the half-life in series [1] was 13 h.
As for `Cc1cc(-c2c(F)c(Sc3ccccc3)c3c(=O)c(C(=O)O)cn(C4CC4)c3c2F)cc(C)n1` [Example 6(c), 1-cyclopropyl-7-(2,6-dimethyl-4-pyridinyl)-6,8-difluoro-5-(phenylthio)-1,4-dihydro-4-oxo-3-quinolinecarboxylic acid], the MIC with Bacteroides fragilis (B. fragilis, read-out: MIC) amounted to 16 µg/mL (≈ 33.4 µM); with Streptococcus faecalis (Strep. faecalis, read-out: MIC) it was 16 µg/mL (≈ 33.4 µM); in the series with Micrococcus luteus (M. luteus, read-out: MIC) it was 16 µg/mL (≈ 33.4 µM); in the series on Staphylococcus aureus (Staph. aureus, read-out: MIC), 1 µg/mL (≈ 2.09 µM); in the series with Streptococcus pneumoniae (setting [3]), 2 µg/mL (≈ 4.18 µM).
Take `Cc1cc(-c2c(F)cc3c(=O)c(C(=O)O)cn(C4CC4)c3c2SCc2ccccc2)cc(C)n1` [Example 7, 1-cyclopropyl-7-(2,6-dimethyl-4-pyridinyl)-6-fluoro-1,4-dihydro-4-oxo-8-(benzylthio)-3-quinolinecarboxylic acid]: the MIC was 64 µg/mL (≈ 135 µM) in the series with Bacteroides fragilis (B. fragilis, read-out: MIC); 2 µg/mL (≈ 4.21 µM) in the series on Streptococcus faecalis (Strep. faecalis, read-out: MIC); 64 µg/mL (≈ 135 µM) in the series with Micrococcus luteus (M. luteus, read-out: MIC); less than 0.125 µg/mL in the series with Staphylococcus aureus (Staph. aureus, read-out: MIC); 2 µg/mL (≈ 4.21 µM) with Streptococcus pneumoniae (setting [3]); 4 µg/mL (≈ 8.43 µM) with Escherichia coli (E. coli, read-out: MIC).
Turning to `CCn1cc(C(=O)O)c(=O)c2ccc(-c3cc(C)nc(C)c3)cc21` [P, 7-(2,6-Dimethyl-4-pyridinyl)-1-ethyl-1,4-dihydro-4-oxo-3-quinolinecarboxylic acid, reference compound], in the series with E. coli, the “E. coli (PD₅₀) po” value was 17.9 mg/kg. Besides, the “E. coli (PD₅₀) sc” value in the series on E. coli worked out at 13.5 mg/kg. For the same molecule, the “Staph. aureus (PD₅₀) po” value in the series with Staph. aureus was 3.8 mg/kg. Also, in the series with Staph. aureus, the “Staph. aureus (PD₅₀) sc” value is reported as 2.37 mg/kg. Also, the MIC worked out at 16 µg/mL (≈ 49.6 µM) in the series with Bacteroides fragilis (anaerobic, read-out: BF MIC); 1 µg/mL (≈ 3.1 µM) in the series on Streptococcus faecalis (setting [2]); 8 µg/mL (≈ 24.8 µM) in the series on Micrococcus luteus (read-out: ML MIC); 32 µg/mL (≈ 99.3 µM) with Pseudomonas aeruginosa; 0.25 µg/mL (≈ 0.776 µM) in the series on Staphylococcus aureus (read-out: SA MIC); 2 µg/mL (≈ 6.2 µM) in the series with Streptococcus pneumoniae (read-out: SP MIC). In the series with Escherichia coli (read-out: EC MIC), the MIC is 0.25 µg/mL (≈ 0.776 µM).
For `O=C(O)c1cn(C2CC2)c2cc(N3CCNCC3)c(F)cc2c1=O` [Q, 1-Cyclopropyl-6-fluoro-7-(1-piperazinyl)-1,4-dihydro-4-oxo-3-quinolinecarboxylic acid, reference compound], the MIC with Bacteroides fragilis (anaerobic, read-out: BF MIC) amounted to 2 µg/mL (≈ 6.04 µM); in the series with Streptococcus faecalis (setting [2]), 0.5 µg/mL (≈ 1.51 µM); in the series with Micrococcus luteus (read-out: ML MIC) it was 2 µg/mL (≈ 6.04 µM); with Pseudomonas aeruginosa, 0.125 µg/mL (≈ 0.377 µM); in the series on Staphylococcus aureus (read-out: SA MIC), 0.25 µg/mL (≈ 0.754 µM); with Streptococcus pneumoniae (read-out: SP MIC), 0.25 µg/mL (≈ 0.754 µM). The MIC with Escherichia coli (read-out: EC MIC) amounted to 0.004 µg/mL (≈ 0.0121 µM).
With `CCn1cc(C(=O)O)c(=O)c2cc(F)c(-c3cc(C)nc(C)c3)cc21` [R, 7-(2,6-Dimethyl-4-pyridinyl)-1-ethyl-6-fluoro-1,4-dihydro-4-oxo-3-quinolinecarboxylic acid, reference compound], the “E. coli (PD₅₀) po” value in the series with E. coli is recorded as 8.24 mg/kg. The “E. coli (PD₅₀) sc” value in the series on E. coli was 5.39 mg/kg. The “Staph. aureus (PD₅₀) po” value in the series with Staph. aureus is 1.38 mg/kg. Also, the “Staph. aureus (PD₅₀) sc” value with Staph. aureus was found to be 0.71 mg/kg. The MIC in the series on Bacteroides fragilis (anaerobic, read-out: BF MIC) was determined as 2 µg/mL (≈ 5.88 µM); in the series with Streptococcus faecalis (setting [2]), 0.25 µg/mL (≈ 0.735 µM); in the series on Micrococcus luteus (read-out: ML MIC) it was 0.5 µg/mL (≈ 1.47 µM); in the series with Pseudomonas aeruginosa, 4 µg/mL (≈ 11.8 µM); in the series on Staphylococcus aureus (read-out: SA MIC), 0.03 µg/mL (≈ 0.0881 µM); in the series on Streptococcus pneumoniae (read-out: SP MIC), 0.25 µg/mL (≈ 0.735 µM). In the series on Escherichia coli (read-out: EC MIC), the MIC was 0.06 µg/mL (≈ 0.176 µM).
